Data on 12 compounds can be found in PubChem BioAssay (NCI).

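Compound exposure: 48 hours, 5 concentrations, 96-well plates. GI50 = concentration required for 50% inhibition of growth. TGI is the concentration that stops growth completely.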

Test systems include RPMI-8226 leukemia; IGROV1 ovarian; OVCAR-8 ovarian; SNB-19 CNS; SW-620 colon; RXF 393 renal; LOX IMVI melanoma; NCI-H522 lung; HL-60(TB) leukemia.
Assay in all cases: NCI-60 cell line screen, 48 h

For `C=C1N(C=O)C(C)(C)N(O)C1(C)C`, the TGI in the experiment with RPMI-8226 leukemia, in the experiment with IGROV1 ovarian, in the experiment on OVCAR-8 ovarian, in the experiment with SNB-19 CNS, in the experiment with SW-620 colon and in the experiment with RXF 393 renal was > 100 µM throughout. Further, the TGI in the experiment on LOX IMVI melanoma is > 100 µM.
As to `CS(=O)(=O)CSCSSCS(C)(=O)=O`, the TGI with NCI-H522 lung is 34 µM; with RPMI-8226 leukemia, 55.3 µM; in the experiment on IGROV1 ovarian, > 100 µM; in the experiment with OVCAR-8 ovarian, > 100 µM; in the experiment with SNB-19 CNS, > 100 µM; with SW-620 colon it was 34.3 µM. Also, the TGI came to 36.1 µM in the experiment on RXF 393 renal, 55.7 µM with HL-60(TB) leukemia and 71.2 µM in the experiment on LOX IMVI melanoma.
For `Cc1cc(C)c2c(=O)cc(-c3cccc(F)c3)[nH]c2n1`, the TGI in the experiment with NCI-H522 lung is 0.141 µM; in the experiment on RPMI-8226 leukemia it was > 55.1 µM; in the experiment with OVCAR-8 ovarian, > 100 µM; in the experiment on SNB-19 CNS, > 100 µM; with HL-60(TB) leukemia, 0.226 µM; with LOX IMVI melanoma it was 22 µM.
On to `CCC1=C(C(C)=O)[C@@H]2CCCCC[C@@H](C(=O)OC)C2C1=O` (stereo partly drawn), for which the TGI in the experiment on NCI-H522 lung, with RPMI-8226 leukemia, in the experiment on IGROV1 ovarian, with OVCAR-8 ovarian, in the experiment on SNB-19 CNS and with SW-620 colon was > 100 µM throughout. Moreover, the TGI in the experiment on RXF 393 renal and in the experiment with HL-60(TB) leukemia was > 100 µM throughout.
For the compound `Cc1cc(C)nc(NS(=O)(=O)c2ccc(Nc3c4ccccc4nc4c(C(=O)N5CCN(CCOS(C)(=O)=O)CC5)cccc34)cc2)n1`, the TGI in the experiment with RPMI-8226 leukemia, with IGROV1 ovarian, in the experiment on OVCAR-8 ovarian, in the experiment with SNB-19 CNS, in the experiment on RXF 393 renal and in the experiment on HL-60(TB) leukemia was > 100 µM in each case.
With `COc1cc(-c2n/c(=C\c3c(O)[nH]c4ccc(Cl)cc34)cc3c2=Nc2ccccc2-3)ccc1F`, the GI50 with RPMI-8226 leukemia was 6.75 µM; in the experiment on IGROV1 ovarian, 2.07 µM; in the experiment with OVCAR-8 ovarian, 2.03 µM; in the experiment with SNB-19 CNS, 1.87 µM; in the experiment with SW-620 colon, 1.33 µM; in the experiment on RXF 393 renal, 1.71 µM. For the same compound, the GI50 in the experiment on HL-60(TB) leukemia was 10.9 µM. The TGI is > 100 µM in the experiment with RPMI-8226 leukemia; 5.17 µM in the experiment with IGROV1 ovarian; 5.19 µM in the experiment with OVCAR-8 ovarian; 4.11 µM in the experiment on SNB-19 CNS; 2.94 µM in the experiment on SW-620 colon; 3.29 µM in the experiment on RXF 393 renal. Moreover, the TGI with HL-60(TB) leukemia came to 34.7 µM.
`CS(=O)(=O)Nc1ccc2c(c1)N(S(C)(=O)=O)CC2CCl` (stereo not drawn): the TGI with NCI-H522 lung, in the experiment with RPMI-8226 leukemia, with IGROV1 ovarian, in the experiment with OVCAR-8 ovarian, with SW-620 colon and in the experiment on RXF 393 renal was > 100 µM throughout. The TGI in the experiment on HL-60(TB) leukemia and in the experiment on LOX IMVI melanoma was > 100 µM in each case.
As for `COC(=O)[C@@H]1CCCCC[C@H]2C(CO)=C(C)C(=O)C12` (stereo partly drawn), the TGI with NCI-H522 lung, with RPMI-8226 leukemia, in the experiment with IGROV1 ovarian, with OVCAR-8 ovarian, with SNB-19 CNS and in the experiment on SW-620 colon was > 100 µM in each case. Besides, the TGI with RXF 393 renal and in the experiment on HL-60(TB) leukemia was > 100 µM each time.
For the compound `COC(=O)C(=O)C(C(=O)C(=O)Nc1cccc(C(C)=O)c1)c1nc2ccccc2[nH]c1=O` (stereo not drawn), the TGI in the experiment with NCI-H522 lung, with IGROV1 ovarian, in the experiment with SNB-19 CNS, in the experiment with SW-620 colon, with RXF 393 renal and with HL-60(TB) leukemia was > 100 µM throughout. Moreover, the TGI in the experiment on LOX IMVI melanoma is > 100 µM.
Take `CN(C)/N=C(/c1nc2ccc(Cl)cc2[nH]c1=O)C(O)c1ccc(C(O)/C(=N\N(C)C)c2nc3ccc(Cl)cc3[nH]c2=O)cc1` (stereo not drawn): the TGI in the experiment with NCI-H522 lung, with RPMI-8226 leukemia, in the experiment on IGROV1 ovarian, in the experiment on OVCAR-8 ovarian, in the experiment with SNB-19 CNS and with SW-620 colon was > 100 µM throughout. In addition, the TGI in the experiment with RXF 393 renal and in the experiment on HL-60(TB) leukemia was > 100 µM in each case.
With `NCCCCNCCCNC(=O)c1nc(-c2nc(CCN)sc2Cl)sc1Cl`, the TGI in the experiment with NCI-H522 lung is 55.9 µM; with RPMI-8226 leukemia, > 100 µM; with IGROV1 ovarian, > 100 µM; with OVCAR-8 ovarian, > 100 µM; with SNB-19 CNS, > 100 µM; in the experiment with SW-620 colon it was > 100 µM. Also, the TGI in the experiment on RXF 393 renal is 37.1 µM; in the experiment on HL-60(TB) leukemia, > 100 µM.
In the case of `CC[C@H](Nc1nc(C)nc(N)c1C#N)c1nc2cccc(NCc3ccc(C(=O)NO)cc3)c2c(=O)n1-c1ccccc1`, the GI50 is 1.54 µM in the experiment on NCI-H522 lung; 2.03 µM in the experiment with RPMI-8226 leukemia; 1.55 µM in the experiment on OVCAR-8 ovarian; 1.63 µM in the experiment on SNB-19 CNS; 1.74 µM with SW-620 colon; 0.866 µM in the experiment with RXF 393 renal. The GI50 with LOX IMVI melanoma is 1.65 µM. The TGI was determined as 3.65 µM in the experiment on NCI-H522 lung; 5.26 µM in the experiment on RPMI-8226 leukemia; 3.71 µM with OVCAR-8 ovarian; 3.97 µM with SNB-19 CNS; 4.47 µM with SW-620 colon; 2.18 µM in the experiment on RXF 393 renal. In addition, the TGI in the experiment with LOX IMVI melanoma amounted to 3.04 µM.
